From ChEMBL document CHEMBL1909046, “DrugMatrix in vitro pharmacology data”

Assays:
[1] = DRUGMATRIX: Atrial Natriuretic Factor (ANF) radioligand binding (ligand: [125I] ANF (rat)); format: cell membranes, Cavia porcellus, Dunkin-Hartley, Adrenal gland, Membrane; conditions: Not Active = under 50% inhibition at 10 µM
[2] = DRUGMATRIX: ATPase, Na+/K+ enzyme inhibition (substrate: ATP); format: tissue-based, Sus scrofa, Heart; conditions: Not Active = under 50% inhibition at 10 µM
[3] = DRUGMATRIX: Serotonin (5-Hydroxytryptamine) 5-HT3 radioligand binding (ligand: [3H] GR-65630); format: cell membranes, Membrane; conditions: hek293; Not Active = under 50% inhibition at 10 µM
[4] = molecular target: Insulin receptor (Rattus norvegicus, UniProt P15127); format: cell membranes, Wistar, Liver, Membrane; also: in other assays of this panel Not Active means under 50% inhibition at 10 µM
[5] = molecular target: T1, Muscarinic acetylcholine receptor M2 (Homo sapiens, UniProt P08172); format: cell membranes, CHO-K1, Membrane; conditions: cho-k1; also: in other assays of this panel Not Active means under 50% inhibition at 10 µM
T1 sequence (P08172 whole entry): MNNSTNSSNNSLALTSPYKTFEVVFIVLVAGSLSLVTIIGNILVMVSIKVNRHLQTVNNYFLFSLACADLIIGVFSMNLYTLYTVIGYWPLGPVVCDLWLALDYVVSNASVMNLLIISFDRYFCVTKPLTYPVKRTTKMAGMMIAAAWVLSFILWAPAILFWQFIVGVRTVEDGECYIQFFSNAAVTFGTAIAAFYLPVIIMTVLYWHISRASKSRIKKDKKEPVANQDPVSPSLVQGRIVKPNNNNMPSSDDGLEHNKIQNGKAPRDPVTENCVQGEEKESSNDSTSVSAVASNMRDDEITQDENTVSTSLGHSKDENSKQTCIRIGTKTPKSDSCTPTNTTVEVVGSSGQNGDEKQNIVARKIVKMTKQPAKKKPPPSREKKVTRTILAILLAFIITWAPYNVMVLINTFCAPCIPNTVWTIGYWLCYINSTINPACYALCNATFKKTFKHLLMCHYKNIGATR

[6] = molecular target: T2, B2 bradykinin receptor (Homo sapiens, UniProt P30411); format: cell membranes, Membrane; conditions: chem-1; also: in other assays of this panel Not Active means under 50% inhibition at 10 µM
T2 sequence (P30411 whole entry): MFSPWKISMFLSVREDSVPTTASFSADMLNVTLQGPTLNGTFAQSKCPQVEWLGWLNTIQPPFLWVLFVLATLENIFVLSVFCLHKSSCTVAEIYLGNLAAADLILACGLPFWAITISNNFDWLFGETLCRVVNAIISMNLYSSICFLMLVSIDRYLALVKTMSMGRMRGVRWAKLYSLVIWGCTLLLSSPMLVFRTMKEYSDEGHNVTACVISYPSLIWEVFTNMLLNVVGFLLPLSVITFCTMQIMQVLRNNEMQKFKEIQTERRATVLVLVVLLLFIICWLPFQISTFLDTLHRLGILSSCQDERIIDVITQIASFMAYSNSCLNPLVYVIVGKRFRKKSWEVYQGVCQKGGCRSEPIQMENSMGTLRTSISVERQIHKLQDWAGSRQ

[7] = molecular target: Mu-type opioid receptor (Homo sapiens, UniProt P35372); experiment: DRUGMATRIX: Opiate mu (OP3, MOP) radioligand binding (ligand: [3H] Diprenorphine); format: cell membranes, CHO-K1, Membrane; conditions: Not Active = under 50% inhibition at 10 µM
[8] = molecular target: T3, C-X-C chemokine receptor type 1 (Homo sapiens, UniProt P25024); also: in other assays of this panel Not Active means under 50% inhibition at 10 µM
T3 sequence (P25024 whole entry): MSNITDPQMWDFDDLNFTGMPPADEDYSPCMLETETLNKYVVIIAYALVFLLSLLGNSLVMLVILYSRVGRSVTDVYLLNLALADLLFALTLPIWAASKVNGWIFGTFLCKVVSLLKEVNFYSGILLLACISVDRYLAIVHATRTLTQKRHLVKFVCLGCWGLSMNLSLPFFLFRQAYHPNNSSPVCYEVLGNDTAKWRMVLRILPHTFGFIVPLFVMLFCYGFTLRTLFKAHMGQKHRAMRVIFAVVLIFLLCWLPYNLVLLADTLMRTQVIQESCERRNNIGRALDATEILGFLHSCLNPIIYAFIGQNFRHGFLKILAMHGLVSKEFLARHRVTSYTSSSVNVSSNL

Chain of Mu-type opioid receptor (P35372 whole entry): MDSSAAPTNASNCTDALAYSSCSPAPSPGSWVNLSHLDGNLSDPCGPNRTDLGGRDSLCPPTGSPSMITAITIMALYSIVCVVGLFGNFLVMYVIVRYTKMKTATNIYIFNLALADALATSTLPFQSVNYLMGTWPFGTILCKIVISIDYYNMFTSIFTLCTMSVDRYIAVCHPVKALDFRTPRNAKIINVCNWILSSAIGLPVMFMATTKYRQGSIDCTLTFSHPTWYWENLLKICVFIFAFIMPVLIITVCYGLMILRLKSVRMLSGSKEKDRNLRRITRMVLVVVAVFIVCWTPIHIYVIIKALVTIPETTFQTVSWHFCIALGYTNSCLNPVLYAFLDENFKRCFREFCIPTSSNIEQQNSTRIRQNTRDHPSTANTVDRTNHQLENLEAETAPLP
Chain of Insulin receptor (P15127 27-759 limits assumed): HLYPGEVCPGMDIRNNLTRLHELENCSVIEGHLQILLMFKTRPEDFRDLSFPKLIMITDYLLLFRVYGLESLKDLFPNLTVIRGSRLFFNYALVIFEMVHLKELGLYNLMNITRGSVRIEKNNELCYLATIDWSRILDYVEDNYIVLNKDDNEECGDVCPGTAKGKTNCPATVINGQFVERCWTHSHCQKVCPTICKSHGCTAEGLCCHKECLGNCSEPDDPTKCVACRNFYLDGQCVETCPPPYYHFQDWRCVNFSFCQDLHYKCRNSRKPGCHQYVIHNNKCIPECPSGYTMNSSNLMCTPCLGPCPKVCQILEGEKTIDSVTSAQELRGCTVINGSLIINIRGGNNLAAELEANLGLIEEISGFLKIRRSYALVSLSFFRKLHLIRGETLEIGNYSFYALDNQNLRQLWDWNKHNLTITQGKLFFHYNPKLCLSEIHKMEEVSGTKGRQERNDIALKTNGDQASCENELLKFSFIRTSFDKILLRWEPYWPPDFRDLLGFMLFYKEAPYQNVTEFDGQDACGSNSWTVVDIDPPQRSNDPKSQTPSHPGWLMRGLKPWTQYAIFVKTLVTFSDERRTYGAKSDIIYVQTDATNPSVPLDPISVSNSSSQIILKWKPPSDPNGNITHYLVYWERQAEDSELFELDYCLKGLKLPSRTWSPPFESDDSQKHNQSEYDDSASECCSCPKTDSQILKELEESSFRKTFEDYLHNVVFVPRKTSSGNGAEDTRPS
Chain of Insulin receptor (P15127 764-1383 limits assumed): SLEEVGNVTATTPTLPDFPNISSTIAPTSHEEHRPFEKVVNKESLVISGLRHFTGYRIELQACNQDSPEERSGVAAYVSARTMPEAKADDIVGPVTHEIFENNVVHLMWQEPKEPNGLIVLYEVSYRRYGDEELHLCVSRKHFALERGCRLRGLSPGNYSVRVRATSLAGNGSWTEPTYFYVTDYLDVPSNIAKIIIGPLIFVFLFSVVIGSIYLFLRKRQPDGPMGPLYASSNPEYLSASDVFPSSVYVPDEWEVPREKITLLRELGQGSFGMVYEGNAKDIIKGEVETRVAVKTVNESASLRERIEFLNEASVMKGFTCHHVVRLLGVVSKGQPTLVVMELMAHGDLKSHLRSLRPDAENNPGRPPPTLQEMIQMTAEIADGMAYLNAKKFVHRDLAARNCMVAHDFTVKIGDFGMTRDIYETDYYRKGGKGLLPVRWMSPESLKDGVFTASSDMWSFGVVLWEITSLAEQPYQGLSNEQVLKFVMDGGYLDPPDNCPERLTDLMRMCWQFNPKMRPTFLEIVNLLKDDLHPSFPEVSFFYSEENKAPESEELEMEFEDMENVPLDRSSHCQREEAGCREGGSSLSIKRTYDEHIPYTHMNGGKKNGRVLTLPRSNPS

SMILES | IC50 [1] | Ki [1] | IC50 [2] | Ki [2] | IC50 [3] | Ki [3] | IC50 [4] | IC50 [5] | IC50 [6] | IC50 ([7]; cho-k1) | IC50 [8] | Ki [7] | IC50 ([7]; read-out: IC50)
CO[C@H]1/C=C/O[C@@]2(C)Oc3c(C)c(O)c4c(O)c(c(/C=N/N5CCN(C)CC5)c(O)c4c3C2=O)NC(=O)/C(C)=C\C=C\[C@H](C)[C@H](O)[C@@H](C)[C@@H](O)[C@@H](C)[C@H](OC(C)=O)[C@@H]1C [RIFAMPIN] | Not Active | Not Active | Not Active | Not Active | Not Active | Not Active | Not Active | Not Active | Not Active | Not Active | Not Active |  | 
Cc1noc(NS(=O)(=O)c2ccc(N)cc2)c1C [SULFISOXAZOLE] | Not Active | Not Active | Not Active | Not Active | Not Active | Not Active | Not Active | Not Active | Not Active | Not Active | Not Active |  | 
NS(=O)(=O)c1cc2c(cc1Cl)NC(C(Cl)Cl)NS2(=O)=O (configuration not stated) [TRICHLORMETHIAZIDE] | Not Active | Not Active | Not Active | Not Active | Not Active | Not Active | Not Active | Not Active | Not Active | Not Active | Not Active |  | 
COc1nc(C)nc(Cl)c1NC1=NCCN1 [MOXONIDINE] | Not Active | Not Active | Not Active | Not Active | Not Active | Not Active | Not Active | Not Active | Not Active | Not Active | Not Active |  | 
Nc1nc2ccc(OC(F)(F)F)cc2s1 [RILUZOLE] | Not Active | Not Active | Not Active | Not Active | Not Active | Not Active | Not Active | Not Active | Not Active | Not Active | Not Active |  | 
C[C@@H]1CN(c2c(F)c(N)c3c(=O)c(C(=O)O)cn(C4CC4)c3c2F)C[C@H](C)N1 [SPARFLOXACIN] | Not Active | Not Active | Not Active | Not Active | Not Active | Not Active | Not Active | Not Active | Not Active | Not Active | Not Active |  | 
CC1(C)O[C@@H]2C[C@H]3[C@@H]4CCC5=CC(=O)C=C[C@]5(C)[C@@]4(F)[C@@H](O)C[C@]3(C)[C@]2(C(=O)CO)O1 [TRIAMCINOLONE ACETONIDE] | Not Active | Not Active | Not Active | Not Active | Not Active | Not Active | Not Active | Not Active | Not Active | Not Active | Not Active |  | 
CSc1ccc(/C=C2/C(C)=C(CC(=O)O)c3cc(F)ccc32)cc1 [SULINDAC SULFIDE] | Not Active | Not Active | Not Active | Not Active | Not Active | Not Active | Not Active | Not Active | Not Active |  | Not Active | 13.7 µM | 33.7 µM
Nc1c2c(nc3ccccc13)CCCC2 [TACRINE] | Not Active | Not Active | Not Active | Not Active | Not Active | Not Active | Not Active | Not Active | Not Active | Not Active | Not Active |  | 
N[C@@H](Cc1ccc(O)c(O)c1)C(=O)O [LEVODOPA] | Not Active | Not Active | Not Active | Not Active | Not Active | Not Active | Not Active | Not Active | Not Active | Not Active | Not Active |  | 
O=NN(CCCl)C(=O)NC1CCCCC1 [LOMUSTINE] | Not Active | Not Active | Not Active | Not Active | Not Active | Not Active | Not Active | Not Active | Not Active | Not Active | Not Active |  | 
Cc1c(C)c2c(c(C)c1O)CCC(C)(COc1ccc(CC3SC(=O)NC3=O)cc1)O2 (configuration not stated) [TROGLITAZONE] | Not Active | Not Active | Not Active | Not Active | Not Active | Not Active | Not Active | Not Active | Not Active | Not Active | Not Active |  | 
CCOC(=O)N1CCC(=C2c3ccc(Cl)cc3CCc3cccnc32)CC1 [LORATADINE] | Not Active | Not Active | Not Active | Not Active | Not Active | Not Active | Not Active | Not Active | Not Active | Not Active | Not Active |  | 
Cc1cccc(N(C)C(=S)Oc2ccc3ccccc3c2)c1 [TOLNAFTATE] | Not Active | Not Active | Not Active | Not Active | Not Active | Not Active | Not Active | Not Active | Not Active | Not Active | Not Active |  | 
NC[C@H]1CC[C@H](C(=O)O)CC1 [TRANEXAMIC ACID] | Not Active | Not Active | Not Active | Not Active | Not Active | Not Active | Not Active | Not Active | Not Active | Not Active | Not Active |  | 
c1ccc([C@H]2CN3CCSC3=N2)cc1 [LEVAMISOLE] | Not Active | Not Active | Not Active | Not Active | Not Active | Not Active | Not Active | Not Active | Not Active | Not Active | Not Active |  | 
OCCN(CCO)c1nc(N2CCCCC2)c2nc(N(CCO)CCO)nc(N3CCCCC3)c2n1 [DIPYRIDAMOLE] | Not Active | Not Active | Not Active | Not Active | Not Active | Not Active | Not Active | Not Active | Not Active | Not Active | Not Active |  | 
Nc1nc2nc[nH]c2c(=S)[nH]1 [THIOGUANINE] | Not Active | Not Active | Not Active | Not Active | Not Active | Not Active | Not Active | Not Active | Not Active | Not Active | Not Active |  | 
Cn1ccnc1S [METHIMAZOLE] | Not Active | Not Active | Not Active | Not Active | Not Active | Not Active | Not Active | Not Active | Not Active | Not Active | Not Active |  | 
Cc1oncc1C(=O)Nc1ccc(C(F)(F)F)cc1 [LEFLUNOMIDE] | Not Active | Not Active | Not Active | Not Active | Not Active | Not Active | Not Active | Not Active | Not Active | Not Active | Not Active |  | 
COc1c(C)c2c(c(O)c1C/C=C(\C)CCC(=O)O)C(=O)OC2 [MYCOPHENOLIC ACID] | Not Active | Not Active | Not Active | Not Active | Not Active | Not Active | Not Active | Not Active | Not Active | Not Active | Not Active |  | 
